# Results as given in PubChem BioAssay AID1963856 (Molecular Pharmacology Branch, DTP, NCI, 2024).
# “And” between values parts separate entries of the source, which are not always exact repeats. Equal entries are not always repeated.
# System: LG0567-F671-PDC KRAS tumor spheroid viability
# Experiment: Anticancer human tumor LG0567-F671-PDC patient-derived lung adenocarcinoma cell line growth inhibition [KRAS2]
# Settings: spheroids with HUVEC and MSC; for viability, T/C: stronger effect = lower value
# Method in brief: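 KRAS-mutant tumor cells were grown as spheroids with HUVEC endothelial cells and human MSCs as stroma. Targeted agents were tested alone and with KRAS pathway inhibitors. Doses started at or near clinical Cmax, or 10 microM, descending half-log.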
# [1] = curve of first compound, second compound 0.1 µM
# [2] = curve of first compound, second compound 0.316 µM
# [3] = curve of first compound, second compound 1 µM
# [4] = curve of first compound, second compound 3.16 µM
# [5] = second compound 0.1 µM, first compound 0.0316 µM
# [6] = second compound 0.1 µM, first compound 0.1 µM
# [7] = second compound 0.316 µM, first compound 0.0316 µM
# [8] = second compound 0.316 µM, first compound 0.1 µM
# [9] = second compound 1 µM, first compound 0.0316 µM
# [10] = second compound 1 µM, first compound 0.1 µM
# [11] = second compound 3.16 µM, first compound 0.0316 µM
# [12] = second compound 3.16 µM, first compound 0.1 µM
# [13] = compound alone, run of 07/26/2021
# [14] = curve of first compound, second compound 10 µM
# [15] = second compound 0.1 µM, first compound 0.000316 µM
# [16] = second compound 0.1 µM, first compound 0.001 µM
# [17] = second compound 0.1 µM, first compound 0.00316 µM
# [18] = second compound 0.1 µM, first compound 0.01 µM
# [19] = second compound 0.316 µM, first compound 0.000316 µM
# [20] = second compound 0.316 µM, first compound 0.001 µM
# [21] = second compound 0.316 µM, first compound 0.00316 µM
# [22] = second compound 0.316 µM, first compound 0.01 µM
# [23] = second compound 1 µM, first compound 0.000316 µM
# [24] = second compound 1 µM, first compound 0.001 µM
# [25] = second compound 1 µM, first compound 0.00316 µM
# [26] = second compound 1 µM, first compound 0.01 µM
# [27] = second compound 3.16 µM, first compound 0.000316 µM
# [28] = second compound 3.16 µM, first compound 0.001 µM
# [29] = second compound 3.16 µM, first compound 0.00316 µM
# [30] = second compound 3.16 µM, first compound 0.01 µM
# [31] = second compound 10 µM, first compound 0.000316 µM
# [32] = second compound 10 µM, first compound 0.001 µM
# [33] = second compound 10 µM, first compound 0.00316 µM
# [34] = second compound 10 µM, first compound 0.01 µM
# [35] = second compound 10 µM, first compound 0.0316 µM
# [36] = second compound 10 µM, first compound 0.1 µM
# 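Note: drug exposure lasted seven days after spheroids formed for three days.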
# 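Throughout, for viability, T/C: 100% = DMSO vehicle control viability.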
smiles,measurement,setting,value
CC1(C)CCC(CN2CCN(c3ccc(C(=O)NS(=O)(=O)c4ccc(NCC5CCOCC5)c([N+](=O)[O-])c4)c(Oc4cnc5[nH]ccc5c4)c3)CC2)=C(c2ccc(Cl)cc2)C1 + C=CC(=O)N1CCN(c2nc(OCC3CCCN3C)nc3c2CCN(c2cccc4cccc(C)c24)C3)CC1CC#N,IC50,"curve of first compound, second compound 0.0316 µM",< 31.6 nM
same,IC50,[1],< 31.6 nM
same,IC50,[2],< 31.6 nM
same,IC50,[3],< 31.6 nM
same,IC50,[4],< 31.6 nM
same,"viability, T/C","second compound 0.0316 µM, first compound 0.0316 µM",31.1%
same,"viability, T/C","second compound 0.0316 µM, first compound 0.1 µM",37.4%
same,"viability, T/C","second compound 0.0316 µM, first compound 0.316 µM",35%
same,"viability, T/C","second compound 0.0316 µM, first compound 1 µM",39.5%
same,"viability, T/C","second compound 0.0316 µM, first compound 3.16 µM",12.7%
same,"viability, T/C","second compound 0.0316 µM, first compound 10 µM",5.63%
same,"viability, T/C",[5],30.2%
same,"viability, T/C",[6],36.3%
same,"viability, T/C","second compound 0.1 µM, first compound 0.316 µM",29.7%
same,"viability, T/C","second compound 0.1 µM, first compound 1 µM",28.7%
same,"viability, T/C","second compound 0.1 µM, first compound 3.16 µM",10.7%
same,"viability, T/C","second compound 0.1 µM, first compound 10 µM",5.62%
same,"viability, T/C",[7],34%
same,"viability, T/C",[8],32.6%
same,"viability, T/C","second compound 0.316 µM, first compound 0.316 µM",32%
same,"viability, T/C","second compound 0.316 µM, first compound 1 µM",27.7%
same,"viability, T/C","second compound 0.316 µM, first compound 3.16 µM",6.23%
same,"viability, T/C","second compound 0.316 µM, first compound 10 µM",2.16%
same,"viability, T/C",[9],34.2%
same,"viability, T/C",[10],33.5%
same,"viability, T/C","second compound 1 µM, first compound 0.316 µM",33.4%
same,"viability, T/C","second compound 1 µM, first compound 1 µM",31.9%
same,"viability, T/C","second compound 1 µM, first compound 3.16 µM",2.97%
same,"viability, T/C","second compound 1 µM, first compound 10 µM",0.47%
same,"viability, T/C",[11],21.8%
same,"viability, T/C",[12],16.1%
same,"viability, T/C","second compound 3.16 µM, first compound 0.316 µM",8.41%
same,"viability, T/C","second compound 3.16 µM, first compound 1 µM",0.74%
same,"viability, T/C","second compound 3.16 µM, first compound 3.16 µM",0.13%
same,"viability, T/C","second compound 3.16 µM, first compound 10 µM",0.89%
C=CC(=O)N1CCN(c2nc(OCC3CCCN3C)nc3c2CCN(c2cccc4cccc(C)c24)C3)CC1CC#N (stereo not drawn),"viability, T/C",compound 0.0316 µM,35.5% [middle of 17 runs]
same,"viability, T/C",compound 0.1 µM,31.3% [middle of 16 runs]
same,"viability, T/C",compound 1 µM,30.4% [middle of 17 runs]
same,IC50,"compound alone, run of 07/12/2021",< 31.6 nM
same,IC50,"compound alone, run of 07/19/2021",< 31.6 nM
same,IC50,[13],< 31.6 nM
Cn1ncnc1[C@H]1c2n[nH]c(=O)c3cc(F)cc(c23)N[C@@H]1c1ccc(F)cc1 + CC1OCC2(CCN(c3cnc(Sc4ccnc(N)c4Cl)c(N)n3)CC2)C1N,IC50,[1],< 0.316 nM
same,IC50,[2],< 0.316 nM
same,IC50,[3],< 0.316 nM
same,IC50,[4],< 0.316 nM
same,IC50,[14],< 0.316 nM
same,"viability, T/C",[15],48.9%
same,"viability, T/C",[16],53.1%
same,"viability, T/C",[17],52.4%
same,"viability, T/C",[18],56.4%
same,"viability, T/C",[5],57.3%
same,"viability, T/C",[6],54.9%
same,"viability, T/C",[19],47%
same,"viability, T/C",[20],34.5%
same,"viability, T/C",[21],29.1%
same,"viability, T/C",[22],36.4%
same,"viability, T/C",[7],32.8%
same,"viability, T/C",[8],35.2%
same,"viability, T/C",[23],29.4%
same,"viability, T/C",[24],25.9%
same,"viability, T/C",[25],21.9%
same,"viability, T/C",[26],18.9%
same,"viability, T/C",[9],22.5%
same,"viability, T/C",[10],23.3%
same,"viability, T/C",[27],24.4%
same,"viability, T/C",[28],19.1%
same,"viability, T/C",[29],19.1%
same,"viability, T/C",[30],15.3%
same,"viability, T/C",[11],12%
same,"viability, T/C",[12],13.8%
same,"viability, T/C",[31],11.2%
same,"viability, T/C",[32],12.2%
same,"viability, T/C",[33],15.7%
same,"viability, T/C",[34],9.32%
same,"viability, T/C",[35],8.87%
same,"viability, T/C",[36],7.89%
CC(C)n1nc(-c2ccc3oc(N)nc3c2)c2c(N)ncnc21 + COc1cc2nc(C)nc(NC(C)c3cc(N)cc(C(F)(F)F)c3)c2cc1OC1CCOC1,IC50,[1],56 nM
same,IC50,[2],15.7 nM
same,IC50,[3],2.92 nM
same,IC50,[4],0.992 nM
same,IC50,[14],< 0.316 nM
same,"viability, T/C",[15],76.4%
same,"viability, T/C",[16],73.5%
same,"viability, T/C",[17],60.4%
same,"viability, T/C",[18],60.6%
same,"viability, T/C",[5],51.8%
same,"viability, T/C",[6],47.5%
same,"viability, T/C",[19],65.2%
same,"viability, T/C",[20],73.6%
same,"viability, T/C",[21],57.7%
same,"viability, T/C",[22],47.5%
same,"viability, T/C",[7],49.8%
same,"viability, T/C",[8],34.7%
same,"viability, T/C",[23],70.1%
same,"viability, T/C",[24],59.1%
same,"viability, T/C",[25],45.8%
same,"viability, T/C",[26],45.2%
same,"viability, T/C",[9],28.4%
same,"viability, T/C",[10],23.5%
same,"viability, T/C",[27],59.9%
same,"viability, T/C",[28],49.9%
same,"viability, T/C",[29],38.4%
same,"viability, T/C",[30],32%
same,"viability, T/C",[11],20.5%
same,"viability, T/C",[12],10.2%
same,"viability, T/C",[31],37.7%
same,"viability, T/C",[32],35.2%
same,"viability, T/C",[33],24.8%
same,"viability, T/C",[34],16.2%
same,"viability, T/C",[35],11.5%
same,"viability, T/C",[36],9.84%
COc1cc2nccc(Oc3ccc(NC(=O)C4(C(=O)Nc5ccc(F)cc5)CC4)cc3)c2cc1OC,"viability, T/C",compound 0.0316 µM,92% [middle of 5 runs]
same,"viability, T/C",compound 0.1 µM,78.3% [middle of 5 runs]
same,"viability, T/C",compound 0.316 µM,75.1% [middle of 5 runs]
same,"viability, T/C",compound 1 µM,67% [middle of 5 runs]
same,IC50,curve of compound,> 10000 nM
CC1OCC2(CCN(c3cnc(Sc4ccnc(N)c4Cl)c(N)n3)CC2)C1N (stereo not drawn),"viability, T/C",compound 0.0316 µM,81.9% and 81.1% and 73.7%
same,"viability, T/C",compound 0.1 µM,56.3% [middle of 20 runs]
same,"viability, T/C",compound 0.316 µM,38.5% [middle of 20 runs]
same,"viability, T/C",compound 3.16 µM,21.6% [middle of 20 runs]
same,"viability, T/C",compound 10 µM,15.5% [middle of 19 runs]
same,IC50,[13],134 nM [middle of 6 runs]
same,IC50,curve of compound,163 nM [middle of 5 runs]
